Data as given in patent US10689367B2, “Triazole pyridyl compounds as agonists of the APJ receptor” (AMGEN INC., priority 2016, dated 2020).

Each molecule was assayed against human APJ receptor (Homo sapiens (Human), UniProt P35414) (assay: [35S]GTPγS binding assay on membranes from CHO cells stably expressing human APJ receptor). Settings: membranes of CHO cells stably expressing human APJ receptor, read-out: Activity hAPJ SPA EC50 IP.
Assay type: biochemical
In short: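 [35S]GTPγS binding measured on membranes from CHO cells stably expressing FLAG-tagged human APJ, with GDP, MgCl2 and NaCl levels optimized beforehand. Incubation 90 min at RT, imager read-out; EC50 from non-linear regression, averaged over several independent experiments.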

Chain of human APJ receptor (P35414 whole entry): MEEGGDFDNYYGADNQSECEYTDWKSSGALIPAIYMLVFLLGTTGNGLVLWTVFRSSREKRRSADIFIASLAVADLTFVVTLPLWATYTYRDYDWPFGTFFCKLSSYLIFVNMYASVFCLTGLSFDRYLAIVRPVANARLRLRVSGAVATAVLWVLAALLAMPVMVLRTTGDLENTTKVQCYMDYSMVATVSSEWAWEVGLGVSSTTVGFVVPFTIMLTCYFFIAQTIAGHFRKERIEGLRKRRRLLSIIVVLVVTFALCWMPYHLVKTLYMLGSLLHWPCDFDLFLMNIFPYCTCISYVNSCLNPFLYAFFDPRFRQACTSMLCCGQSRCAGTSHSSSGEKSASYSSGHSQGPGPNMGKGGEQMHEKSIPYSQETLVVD

| SMILES | EC50 |
| --- | --- |
| COc1cccc(-c2nnc(NS(=O)(=O)[C@@H](C)[C@H](OC)c3ncc(Cl)cn3)n2CC2CCOC2)n1 (single isomer, unassigned) [Example 285.0, (1R,2S)-1-(5-chloropyrimidin-2-yl)-1-methoxy-N-(5-(6-methoxypyridin-2-yl)-4-(((R)-tetrahydrofuran-3-yl)methyl)-4H-1,2,4-triazol-3-yl)propane-2-sulfonamide or (1R,2S)-1-(5-chloropyrimidin-2-yl)-1-methoxy-N-(5-(6-methoxypyridin-2-yl)-4-(((S)-tetrahydrofuran-3-yl)methyl)-4H-1,2,4-triazol-3-yl)propane-2-sulfonamide] | 65 nM |
| COc1cccc(-c2nnc(NS(=O)(=O)[C@@H](C)[C@H](OC)c3ncc(Cl)cn3)n2CC2CCOC2)n1 (single isomer, unassigned) [Example 286.0, (1R,2S)-1-(5-chloropyrimidin-2-yl)-1-methoxy-N-(5-(6-methoxypyridin-2-yl)-4-(((R)-tetrahydrofuran-3-yl)methyl)-4H-1,2,4-triazol-3-yl)propane-2-sulfonamide or (1R,2S)-1-(5-chloropyrimidin-2-yl)-1-methoxy-N-(5-(6-methoxypyridin-2-yl)-4-(((S)-tetrahydrofuran-3-yl)methyl)-4H-1,2,4-triazol-3-yl)propane-2-sulfonamide] | 55 nM |
| COc1cccc(-c2nnc(NS(=O)(=O)[C@@H](C)[C@H](OC)c3ncc(Cl)cn3)n2C[C@H]2CCC(C)(C)O2)n1 (single isomer, unassigned) [Example 289.0, (1R,2S)-1-(5-chloropyrimidin-2-yl)-N-(4-(((R)-5,5-dimethyltetrahydrofuran-2-yl)methyl)-5-(6-methoxyl)yridin-2-yl)-4H-1,2,4-triazol-3-yl)-1-methoxypropane-2-sulfonamide or (1R,2S)-1-(5-chloropyrimidin-2-yl)-N-(4-(((S)-5,5-dimethyltetrahydrofuran-2-yl)methyl)-5-(6-methoxypyridin-2-yl)-4H-1,2,4-triazol-3-yl)-1-methoxypropane-2-sulfonamide] | 82 nM |
| COc1cccc(-c2nnc(NS(=O)(=O)[C@@H](C)[C@H](OC)c3ncc(Cl)cn3)n2C[C@H]2CCC(C)(C)O2)n1 (single isomer, unassigned) [Example 290.0, (1R,2S)-1-(5-chloropyrimidin-2-yl)-N-(4-(((R)-5,5-dimethyltetrahydrofuran-2-yl)methyl)-5-(6-methoxypyridin-2-yl)-4H-1,2,4-triazol-3-yl)-1-methoxypropane-2-sulfonamide or (1R,2S)-1-(5-chloropyrimidin-2-yl)-N-(4-(((S)-5,5-dimethyltetrahydrofuran-2-yl)methyl)-5-(6-methoxypyridin-2-yl)-4H-1,2,4-triazol-3-yl)-1-methoxypropane-2-sulfonamide] | 15 nM |
| COc1cccc(-c2nnc(NS(=O)(=O)[C@@H](C)[C@H](C)c3ncc(Cl)cn3)n2[C@H](C)c2csnn2)n1 (single isomer, unassigned) [Example 295.0, (2S,3R)-N-(4-((R)-1-(1,2,3-thiadiazol-4-yl)ethyl)-5-(6-methoxypyridin-2-yl)-4H-1,2,4-triazol-3-yl)-3-(5-chloropyrimidin-2-yl)butane-2-sulfonamide or (2S,3R)-N-(4-((S)-1-(1,2,3-thiadiazol-4-yl)ethyl)-5-(6-methoxypyridin-2-yl)-4H-1,2,4-triazol-3-yl)-3-(5-chloropyrimidin-2-yl)butane-2-sulfonamide] | 6.4 nM |
| COc1cccc(-c2nnc(NS(=O)(=O)[C@@H](C)[C@H](C)c3ncc(Cl)cn3)n2[C@H](C)c2csnn2)n1 (single isomer, unassigned) [Example 296.0, (2S,3R)-N-(4-((R)-1-(1,2,3-thiadiazol-4-yl)ethyl)-5-(6-methoxypyridin-2-yl)-4H-1,2,4-triazol-3-yl)-3-(5-chloropyrimidin-2-yl)butane-2-sulfonamide or (2S,3R)-N-(4-((S)-1-(1,2,3-thiadiazol-4-yl)ethyl)-5-(6-methoxypyridin-2-yl)-4H-1,2,4-triazol-3-yl)-3-(5-chloropyrimidin-2-yl)butane-2-sulfonamide] | 1.8 nM |
| COc1cccc(-c2nnc(NS(=O)(=O)[C@@H](C)[C@@H](OC(C)C)c3ncc(C)cn3)n2C[C@H]2CCCCO2)n1 (single isomer, unassigned) [Example 300.0, (1S,2S)-1-isopropoxy-N-(5-(6-methoxypyridin-2-yl)-4-(((R)-tetrahydro-2H-pyran-2-yl)methyl)-4H-1,2,4-triazol-3-yl)-1-(5-methylpyrimidin-2-yl)propane-2-sulfonamide or (1S,2S)-1-isopropoxy-N-(5-(6-methoxypyridin-2-yl)-4-(((S)-tetrahydro-2H-pyran-2-yl)methyl)-4H-1,2,4-triazol-3-yl)-1-(5-methylpyrimidin-2-yl)propane-2-sulfonamide] | 14 nM |
| COc1cccc(-c2nnc(NS(=O)(=O)[C@@H](C)[C@@H](OC(C)C)c3ncc(C)cn3)n2C[C@H]2CCCCO2)n1 (single isomer, unassigned) [Example 301.0, (1S,2S)-1-isopropoxy-N-(5-(6-methoxypyridin-2-yl)-4-(((R)-tetrahydro-2H-pyran-2-yl)methyl)-4H-1,2,4-triazol-3-yl)-1-(5-methylpyrimidin-2-yl)propane-2-sulfonamide or (1S,2S)-1-isopropoxy-N-(5-(6-methoxypyridin-2-yl)-4-(((S)-tetrahydro-2H-pyran-2-yl)methyl)-4H-1,2,4-triazol-3-yl)-1-(5-methylpyrimidin-2-yl)propane-2-sulfonamide] | 4.4 nM |
| COc1cccc(-c2nnc(NS(=O)(=O)[C@@H](C)[C@H](OC)c3ncc(Cl)cn3)n2C[C@@H]2CCC[C@H](C)O2)n1 (single isomer, unassigned) [Example 305.0] | 4 nM |
| COc1cccc(-c2nnc(NS(=O)(=O)[C@@H](C)[C@H](OC)c3ncc(Cl)cn3)n2C[C@@H]2CCC[C@H](C)O2)n1 (single isomer, unassigned) [Example 306.0] | 35 nM |
| COc1cccc(-c2nnc(NS(=O)(=O)[C@@H](C)[C@H](OC)c3ncc(Cl)cn3)n2C[C@@H]2CCC[C@H](C)O2)n1 (single isomer, unassigned) [Example 307.0] | 8.8 nM |
| COc1cccc(-c2nnc(NS(=O)(=O)[C@@H](C)[C@H](OC)c3ncc(Cl)cn3)n2C[C@@H]2CCC[C@H](C)O2)n1 (single isomer, unassigned) [Example 308.0] | 1.9 nM |
| COc1cccc(-c2nnc(NS(=O)(=O)[C@@H](C)[C@H](OC)c3ncc(Cl)cn3)n2[C@H](C)[C@@H]2CCCCO2)n1 (single isomer, unassigned) [Example 317.0] | 0.71 nM |
| COc1cccc(-c2nnc(NS(=O)(=O)[C@@H](C)[C@H](OC)c3ncc(Cl)cn3)n2[C@H](C)[C@@H]2CCCCO2)n1 (single isomer, unassigned) [Example 318.0] | 2.4 nM |
| COc1cccc(-c2nnc(NS(=O)(=O)[C@@H](C)[C@@H](OC(C)C)c3ncc(C)cn3)n2[C@H](C)[C@@H]2CCCCO2)n1 (single isomer, unassigned) [Example 321.0] | 12 nM |
| COc1cccc(-c2nnc(NS(=O)(=O)[C@@H](C)[C@@H](OC(C)C)c3ncc(C)cn3)n2[C@H](C)[C@@H]2CCCCO2)n1 (single isomer, unassigned) [Example 322.0] | 1.2 nM |
| COc1cccc(-c2nnc(NS(=O)(=O)[C@@H](C)[C@@H](OC(C)C)c3ncc(C)cn3)n2[C@H](C)[C@@H]2CCCCO2)n1 (single isomer, unassigned) [Example 323.0] | 0.66 nM |
| COc1cccc(-c2nnc(NS(=O)(=O)[C@@H](C)[C@@H](OC(C)C)c3ncc(C)cn3)n2[C@H](C)[C@@H]2CCCCO2)n1 (single isomer, unassigned) [Example 324.0] | 0.35 nM |
| CC[C@H]([C@@H]1CCCCO1)n1c(NS(=O)(=O)[C@@H](C)[C@H](OC)c2ncc(Cl)cn2)nnc1-c1cccc(OC)n1 (single isomer, unassigned) [Example 325.0] | 0.33 nM |
| CC[C@H]([C@@H]1CCCCO1)n1c(NS(=O)(=O)[C@@H](C)[C@H](OC)c2ncc(Cl)cn2)nnc1-c1cccc(OC)n1 (single isomer, unassigned) [Example 326.0] | 0.14 nM |
| CC[C@H]([C@@H]1CCCCO1)n1c(NS(=O)(=O)[C@@H](C)[C@H](OC)c2ncc(Cl)cn2)nnc1-c1cccc(OC)n1 (single isomer, unassigned) [Example 327.0] | 0.11 nM |
| CC[C@H]([C@@H]1CCCCO1)n1c(NS(=O)(=O)[C@@H](C)[C@H](OC)c2ncc(Cl)cn2)nnc1-c1cccc(OC)n1 (single isomer, unassigned) [Example 328.0] | 0.064 nM |
| CC[C@H]([C@@H]1CCCCO1)n1c(NS(=O)(=O)[C@@H](C)[C@H](OC)c2ncc(C)cn2)nnc1-c1cccc(OC)n1 (single isomer, unassigned) [Example 329.0] | 1.4 nM |
| CC[C@H]([C@@H]1CCCCO1)n1c(NS(=O)(=O)[C@@H](C)[C@H](OC)c2ncc(C)cn2)nnc1-c1cccc(OC)n1 (single isomer, unassigned) [Example 330.0] | 0.23 nM |
| CC[C@H]([C@@H]1CCCCO1)n1c(NS(=O)(=O)[C@@H](C)[C@H](OC)c2ncc(C)cn2)nnc1-c1cccc(OC)n1 (single isomer, unassigned) [Example 331.0] | 0.6 nM |
| CC[C@H]([C@@H]1CCCCO1)n1c(NS(=O)(=O)[C@@H](C)[C@H](OC)c2ncc(C)cn2)nnc1-c1cccc(OC)n1 (single isomer, unassigned) [Example 332.0] | 0.12 nM |
| CC[C@H]([C@@H]1CCCCO1)n1c(NS(=O)(=O)[C@@H](C)[C@H](OC)c2ncc(C)cn2)nnc1-c1cncc(C)c1 (single isomer, unassigned) [Example 333.0] | 7.7 nM |
| CC[C@H]([C@@H]1CCCCO1)n1c(NS(=O)(=O)[C@@H](C)[C@H](OC)c2ncc(C)cn2)nnc1-c1cncc(C)c1 (single isomer, unassigned) [Example 334.0] | 29 nM |
| CC[C@H]([C@@H]1CCCCO1)n1c(NS(=O)(=O)[C@@H](C)[C@H](OC)c2ncc(C)cn2)nnc1-c1cncc(C)c1 (single isomer, unassigned) [Example 335.0] | 14 nM |
